Measurements taken from ChEMBL document CHEMBL6134822, “Discovery of a potent and in vivo anti-inflammatory Efficacious, P2Y14R antagonist with a novel benzisoxazoles scaffold by DNA-encoded chemical library technology” (Eur J Med Chem, 2025).
The source made the active and inactive calls. The calls are words filed in the database; no cut-off is given here.

Tests used:
[1] = Microsomal stability in human liver microsomes assessed as half life; assay type: ADME, Microsome
[2] = Stability in simulated gastric fluid assessed as half life; assay type: physicochemical
[3] = target: T1, P2Y purinoceptor 14 (Homo sapiens, UniProt Q15391); assay: Antagonist activity at P2Y14 receptor (unknown origin) stably expressed in HEK293 cells assessed as inhibition of forskolin-induced intracellular cAMP production incubated for 30 mins in presence of UDPG by Camp-Glo kit assay; assay type: functional, cell-based
T1 sequence (Q15391 whole entry): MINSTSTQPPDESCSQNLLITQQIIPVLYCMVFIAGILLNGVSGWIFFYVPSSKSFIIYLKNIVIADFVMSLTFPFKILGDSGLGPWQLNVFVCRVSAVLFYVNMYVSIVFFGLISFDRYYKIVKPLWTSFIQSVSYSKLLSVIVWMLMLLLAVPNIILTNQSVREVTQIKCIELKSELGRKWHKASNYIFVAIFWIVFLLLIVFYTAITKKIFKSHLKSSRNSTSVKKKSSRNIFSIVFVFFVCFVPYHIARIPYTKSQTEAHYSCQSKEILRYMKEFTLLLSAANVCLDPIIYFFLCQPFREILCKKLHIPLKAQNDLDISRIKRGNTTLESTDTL

[4] = tested on: Mus musculus; assay: Anti-inflammatory activity in C57BL/6 mouse model of LPS-induced ALI assessed as reduction in MPO level in lung tissue at 2 to 6 mg/kg qd treated for 7 days; assay type: functional, organism-based; settings: dose 2-6 mg/kg, time 7.0 day
[5] = tested on: Mus musculus; assay: Anti-inflammatory activity in C57BL/6 mouse model of LPS-induced ALI assessed as reduction in IL-6 level in BALF at 2 to 6 mg/kg qd treated for 7 days by ELISA; assay type: functional, organism-based; settings: dose 2-6 mg/kg, time 7.0 day
[6] = Stability in simulated intestinal fluid assessed as half life; assay type: physicochemical
[7] = tested on: Mus musculus; assay: Anti-inflammatory activity in C57BL/6 mouse model of LPS-induced ALI assessed as reduction in lung tissue damage at 2 to 6 mg/kg qd treated for 7 days by H and E staining based analysis; assay type: functional, organism-based; settings: dose 2-6 mg/kg, time 7.0 day
[8] = Microsomal stability in human liver microsomes assessed as intrinsic clearance; assay type: ADME, Microsome; settings: read-out: CLH
[9] = Toxicity in C57BL/6 mouse model of LPS-induced ALI assessed as average body weight change at 2 to 6 mg/kg qd treated for 7 days; assay type: organism-based; settings: in vivo, 168 h, dose 2-6 mg/kg, time 7 day
[10] = target: T1, P2Y purinoceptor 14; assay: Binding affinity to CM5 chip-immobilized P2Y14 receptor (unknown origin) assessed as equilibrium dissociation constant by SPR analysis
[11] = tested on: Mus musculus; assay: Anti-inflammatory activity in C57BL/6 mouse model of LPS-induced ALI assessed as reduction in TNF-alpha level in BALF at 2 to 6 mg/kg qd treated for 7 days by ELISA; assay type: functional, organism-based; settings: dose 2-6 mg/kg, time 7.0 day
[12] = tested on: Mus musculus; assay: Anti-inflammatory activity in C57BL/6 mouse model of LPS-induced ALI assessed as reduction in IL-1beta level in BALF at 2 to 6 mg/kg qd treated for 7 days by ELISA; assay type: functional, organism-based; settings: dose 2-6 mg/kg, time 7.0 day

In the case of CNC(=O)C1CN(C(=O)c2onc3ccccc23)CC12CCN(C(=O)c1noc3ccccc13)CC2 (configuration not stated), the half-life [1] is reported as 5.9 h, the half-life [2] is reported as greater than 50 h and the IC50 [3] is reported as 0.0236 µM. The Activity [4] was “Active”, the Activity [5] was “Active” and the half-life [6] was greater than 5 h. For the same molecule, the Activity [7] was “Active”, the microsomal CLint [8] was 25.6 µL/min/mg and the Activity [9] was “Non-toxic”. The Kd [10] was 7.26 µM, the Activity [11] was “Active” and the Activity [12] was “Active”.
